Test results from patent US11458091B2, “Compositions and methods for the treatment of opioid overdose” (Opiant Pharmaceuticals, Inc., priority 2016, dated 2022).
Like-named read-outs stand apart in the source and are kept apart here.

How the values were obtained:
[1] = for AUCextrap / Cmax/D / Lambda z: mean
clinical = conditions: human, in vivo; for concentration at 0 h: Hour 0.0; for concentration at 36 h: Hour 36.0; for concentration at 48 h: Hour 48.0; for concentration at 60 h: Hour 60.0; for concentration at 72 h: Hour 72.0; for concentration at 0.08 h: Hour 0.08; for concentration at 2 h: Hour 2.0; for concentration at 3 h: Hour 3.0; for Tmax: median; for concentration at 0.5 h: Hour 0.50; for concentration at 1 h: Hour 1.0; for concentration at 4 h: Hour 4.0
[2] = in vivo; cited from earlier work
[3] = cited from earlier work
[4] = Intranasal naltrexone with Intravail, AUC (data not presented); format: in vivo; conditions: effect of Intravail
Text: This important difference could not be predicted based on structure of the opioid antagonists, or the function of these moieties as opioid antagonists.

[5] = parameters: increase of total exposure (AUC): reference not given here; conditions: intranasal formulation with […] Intravail, cited from earlier work
[6] = 3 mg plus […] Intravail IN, N = 14
[7] = 1.5 mg, Mean plasma concentration of nalmefene, 1.5 mg IM
[8] = 1.5 mg, Mean plasma concentration of nalmefene, 1.5 mg IN
[9] = 3 mg, Mean plasma concentration of nalmefene, 3 mg + […] Intravail IN
[10] = 3 mg, Mean plasma concentration of nalmefene, 3 mg IN

C=C1CC[C@@]2(O)[C@H]3Cc4ccc(O)c5c4[C@@]2(CCN3CC2CC2)[C@H]1O5 [Nalmefene, 17-cyclopropylmethyl-4,5α-epoxy-6-methylenemorphinan-3,14-diol]
Mean plasma concentration of nalmefene ([1]; 1.5 mg IM, Hour 0.08): 0.457 ng/mL
Mean plasma concentration of nalmefene ([1]; 1.5 mg IM, Hour 0.17): 1.01 ng/mL
Mean plasma concentration of nalmefene ([1]; 1.5 mg IM, Hour 0.25): 1.43 ng/mL
Mean plasma concentration of nalmefene ([1]; 1.5 mg IM, Hour 0.33): 1.33 ng/mL
Mean plasma concentration of nalmefene ([1]; 1.5 mg IM, Hour 0.50): 1.19 ng/mL
Mean plasma concentration of nalmefene ([1]; 1.5 mg IM, Hour 0.75): 1.14 ng/mL
Mean plasma concentration of nalmefene ([1]; 1.5 mg IM, Hour 1.0): 1.08 ng/mL
Mean plasma concentration of nalmefene ([1]; 1.5 mg IM, Hour 2.0): 1.03 ng/mL
Mean plasma concentration of nalmefene ([1]; 1.5 mg IM, Hour 3.0): 0.878 ng/mL
Mean plasma concentration of nalmefene ([1]; 1.5 mg IM, Hour 4.0): 0.798 ng/mL
Mean plasma concentration of nalmefene ([1]; 1.5 mg IM, Hour 6.0): 0.688 ng/mL
Mean plasma concentration of nalmefene ([1]; 1.5 mg IM, Hour 8.0): 0.603 ng/mL
Mean plasma concentration of nalmefene ([1]; 1.5 mg IM, Hour 12.0): 0.470 ng/mL
Mean plasma concentration of nalmefene ([1]; 1.5 mg IM, Hour 16.0): 0.298 ng/mL
Mean plasma concentration of nalmefene ([1]; 1.5 mg IM, Hour 24.0): 0.128 ng/mL
Mean plasma concentration of nalmefene ([1]; 1.5 mg IM, Hour 30.0): 0.0740 ng/mL
AUCextrap ([1]; 1.5 mg IM, N = 13): 22.6%
Cmax/D ([1]; 1.5 mg IM, N = 13): 1.12 ng/mL/mg
Lambda z ([1]; 1.5 mg IM, N = 13): 0.094 h⁻¹
AUCextrap ([1]; 1.5 mg IN, N = 14): 30.6%
Cmax/D ([1]; 1.5 mg IN, N = 14): 0.646 ng/mL/mg
Lambda z ([1]; 1.5 mg IN, N = 14): 0.131 h⁻¹
AUCextrap ([1]; 3 mg IN, N = 14): 17.9%
Cmax/D ([1]; 3 mg IN, N = 14): 0.731 ng/mL/mg
Lambda z ([1]; 3 mg IN, N = 14): 0.101 h⁻¹
AUCextrap [1, 6]: 14.6%
Cmax/D [1, 6]: 1.65 ng/mL/mg
Lambda z [1, 6]: 0.117 h⁻¹
half-life (clinical; 1.5 mg, 1.5 mg IN, mean, N = 14): 6.74 h
concentration at 0 h (clinical; [7]): 0 ng/mL
concentration at 36 h (clinical; [7]): 0 ng/mL
concentration at 48 h (clinical; [7]): 0 ng/mL
concentration at 60 h (clinical; [7]): 0 ng/mL
concentration at 72 h (clinical; [7]): 0 ng/mL
concentration at 0 h (clinical; [8]): 0 ng/mL
concentration at 0.08 h (clinical; [8]): 0 ng/mL
concentration at […] (clinical; 1.5 mg, Mean plasma concentration of nalmefene, 1.5 mg IN, Hour 0.75): 0.691 ng/mL
concentration at 2 h (clinical; [8]): 0.872 ng/mL
concentration at 3 h (clinical; [8]): 0.712 ng/mL
concentration at 12 h (clinical; 1.5 mg, Mean plasma concentration of nalmefene, 1.5 mg IN, Hour 12.0): 0.141 ng/mL
concentration at 30 h (clinical; 1.5 mg, Mean plasma concentration of nalmefene, 1.5 mg IN, Hour 30.0): 0 ng/mL
concentration at 36 h (clinical; [8]): 0 ng/mL
concentration at 48 h (clinical; [8]): 0 ng/mL
concentration at 60 h (clinical; [8]): 0 ng/mL
concentration at 72 h (clinical; [8]): 0 ng/mL
Tmax (clinical; 1.5 mg, 1.5 mg IN, N = 14): 2 h
AUC(0-t) (clinical; 3 mg, AUC0-t, 3 mg plus […] Intravail IN, mean, N = 14): 17.3 ng·h/mL
half-life (clinical; 3 mg, 3 mg IN, mean, N = 14): 7.84 h
half-life (clinical; 3 mg, 3 mg plus […] Intravail IN, mean, N = 14): 6.78 h
concentration at 0 h (clinical; [9]): 0 ng/mL
concentration at 0.08 h (clinical; [9]): 0.931 ng/mL
concentration at […] (clinical; 3 mg, Mean plasma concentration of nalmefene, 3 mg + […] Intravail IN, Hour 0.17): 3.69 ng/mL
concentration at […] (clinical; 3 mg, Mean plasma concentration of nalmefene, 3 mg + […] Intravail IN, Hour 0.25): 4.38 ng/mL
concentration at […] (clinical; 3 mg, Mean plasma concentration of nalmefene, 3 mg + […] Intravail IN, Hour 0.33): 3.53 ng/mL
concentration at 0.5 h (clinical; [9]): 3.2 ng/mL
concentration at 1 h (clinical; [9]): 2.54 ng/mL
concentration at 2 h (clinical; [9]): 1.99 ng/mL
concentration at 3 h (clinical; [9]): 1.57 ng/mL
concentration at 4 h (clinical; [9]): 1.32 ng/mL
concentration at 6 h (clinical; 3 mg, Mean plasma concentration of nalmefene, 3 mg + […] Intravail IN, Hour 6.0): 0.91 ng/mL
concentration at 36 h (clinical; [9]): 0.0149 ng/mL
concentration at 48 h (clinical; [9]): 0 ng/mL
concentration at 60 h (clinical; [9]): 0 ng/mL
concentration at 72 h (clinical; [9]): 0 ng/mL
concentration at 0 h (clinical; [10]): 0 ng/mL
concentration at 0.08 h (clinical; [10]): 0 ng/mL
concentration at […] (clinical; 3 mg, Mean plasma concentration of nalmefene, 3 mg IN, Hour 0.25): 0.392 ng/mL
concentration at 0.5 h (clinical; [10]): 1.01 ng/mL
concentration at […] (clinical; 3 mg, Mean plasma concentration of nalmefene, 3 mg IN, Hour 0.75): 1.4 ng/mL
concentration at 1 h (clinical; [10]): 1.68 ng/mL
concentration at 3 h (clinical; [10]): 1.53 ng/mL
concentration at 4 h (clinical; [10]): 1.22 ng/mL
concentration at 24 h (clinical; 3 mg, Mean plasma concentration of nalmefene, 3 mg IN, Hour 24.0): 0.125 ng/mL
concentration at 48 h (clinical; [10]): 0 ng/mL
concentration at 60 h (clinical; [10]): 0 ng/mL
concentration at 72 h (clinical; [10]): 0 ng/mL
Tmax (clinical; 3 mg, 3 mg IN, N = 14): 2 h
incidence of common adverse reactions (nausea, vomiting, tachycardia, hypertension, postoperative pain, fever, dizziness, headache, chills, hypotension, vasodilation) [2]: greater than 1%
potency versus naloxone ([3]; milligram-per-milligram basis): equipotent on a milligram-per-milligram basis
clearance ([3]; versus naloxone): slower than naloxone

O=C1CC[C@@]2(O)[C@H]3Cc4ccc(O)c5c4[C@@]2(CCN3CC2CC2)[C@H]1O5 [naltrexone, 17-(cyclopropylmethyl)-4,5α-epoxy-3,14-dihydroxymorphinan-6-one]
AUC [4]: increased significantly

CNS(=O)(=O)Cc1ccc2[nH]cc(CCN(C)C)c2c1 [sumatriptan]
increase of maximum plasma concentration ([5]; in comparison to Imitrex nasal spray): almost four-fold
Tmax [5]: 8 to 10 min
increase of total exposure (AUC) [5]: 32%
